Measured values reported in the OPERA property sets (Mansouri et al. 2018).

Conditions: not given

Point of comparison: `O=C(O)c1nc(Cl)ccc1Cl`, log10 Koc (L/kg) 1.56. Against it:
- CCOP(=O)(NC(C)C)Oc1ccc(S(C)(=O)=O)c(C)c1 (centres undefined) — within 0.2 log units, 1.64
- C=CCN(CC=C)C(=O)CCl — lower, 1.3
- Sc1nc2ccccc2s1 — higher, 2.25
- CCNNCC — lower, 1.18
- CC(C)OC(=O)Nc1ccccc1 — higher, 1.83
- CCNc1nc(Cl)nc(NC(C)(C)C#N)n1 — higher, 2.28
- CC1=C(C(=O)Nc2ccccc2)SCCO1 — higher, 2.41
- Clc1ccc(Cl)c(-c2cc(Cl)ccc2Cl)c1 — higher, 5.12

Point of comparison: `c1ccsc1`, log10 vapour pressure (mmHg) 1.9. Against it:
- C=CCN(CC=C)C(=O)CCl — lower, -2.03
- Ic1cccs1 — lower, 0.906
- CC(C)(C)c1ccc2cc3ccccc3cc2c1 — lower, -6.19
- CCOC(=O)CCCCC(=O)OCC — lower, -1.24
- C=CCCCCCCCCCCC — lower, -1.2
- CCCCC=O — lower, 1.42
- FC(F)=C(F)F — higher, 4.39
- CCCCCCCCCCN — lower, -1
- C1=CCC2CC2C1 (centres undefined) — lower, 1.36
- CC(F)(F)Cl — higher, 3.41
- CCCCCCCCCCCF — lower, -0.682
- O=C(O)c1nc(Cl)ccc1Cl — lower, -4.92
- CC1CCCC1 — higher, 2.14
- CC(C)OC(=O)Nc1ccccc1 — lower, -3.85
- FC(F)(F)C(Cl)Cl — higher, 2.86
- CCNc1nc(Cl)nc(NC(C)(C)C#N)n1 — lower, -6.86
- CC1=C(C(=O)Nc2ccccc2)SCCO1 — lower, -6.82
- CCc1ccc(C)cc1C — lower, -0.0685
- C[Si](C)(C)O[Si](C)(O[Si](C)(C)C)O[Si](C)(C)C — lower, -1.4

Point of comparison: `CC(F)(F)Cl`, boiling point -9.7 °C. Against it:
- O=Cc1cccc(F)c1 — higher, 173 °C
- Ic1cccs1 — higher, 181 °C
- COOC — higher, 14 °C
- CCOC(=O)CCCCC(=O)OCC — higher, 245 °C
- CCO[Si](c1ccccc1)(c1ccccc1)c1ccccc1 — higher, 344 °C
- C=CC(F)(F)C(F)(F)C(F)(F)C(F)(F)C(F)(F)C(F)(F)C(F)(F)C(F)(F)F — higher, 150 °C
- C=CCCCCCCCCCCC — higher, 233 °C
- CCCCC=O — higher, 103 °C
- Cc1c(F)c(F)cc(F)c1F — higher, 126 °C
- CC(C)CCSSCCC(C)C — higher, 247 °C
- CCCCC(C)(C)CC — higher, 137 °C
- FC(F)=C(F)F — lower, -75.9 °C
- CCCCCCCCCCN — higher, 220 °C
- C1=CCC2CC2C1 (centres undefined) — higher, 125 °C
- COc1ccc2ncccc2c1 — higher, 306 °C
- CN(C=O)c1ccccc1 — higher, 243 °C
- CC(=O)OC(OC(C)=O)c1ccccc1 — higher, 220 °C
- CCCCCC(=O)OCCC(C)C — higher, 226 °C
- COC(N)=O — higher, 177 °C
- Cc1cc(Cl)nn1C — higher, 211 °C
- C=C(C)C1CC1 — higher, 70 °C
- O=Cc1cccc(O)c1O — higher, 235 °C
- C=CC(Cl)(Cl)Cl — higher, 114 °C
- C=CCCC(C)C — higher, 85.3 °C
- Nc1cc(Cl)ccc1Cl — higher, 251 °C
- Cc1cc(C)n(C)n1 — higher, 170 °C
- CN(C)CCCN(C)C — higher, 144 °C
- CN(C)CCN(C)C — higher, 121 °C
- CCCC(C=O)CCC — higher, 160 °C
- CCOC(=O)C(CC)C(=O)OCC — higher, 208 °C
- CCNNCC — higher, 85.5 °C
- C=CCc1cc(OC)c2c(c1)OCO2 — higher, 276 °C
- CC(C)OC(N)=O — higher, 183 °C
- CC1CCCC1 — higher, 71.8 °C
- c1ccc2c(c1)Cc1ccccc1C2 — higher, 305 °C
- CCCC(C)C(C)CC (centres undefined) — higher, 141 °C
- O=C1CCCCO1 — higher, 219 °C
- ICCI — higher, 200 °C
- FC(F)(F)C(Cl)Cl — higher, 27 °C
- CC(C)c1ccc(C(C)C)c(C(C)C)c1 — higher, 244 °C
- O=C(Cl)c1cccc([N+](=O)[O-])c1 — higher, 276 °C
- CC(C)OC(=O)c1ccccc1 — higher, 216 °C
- c1ccsc1 — higher, 84 °C
- CCc1ccc(C)cc1C — higher, 188 °C
- CCC(C)CCC(C)C (centres undefined) — higher, 136 °C
- COc1cccc(OC)c1O — higher, 261 °C
- CN(C)C(=S)N(C)C — higher, 245 °C
- C=CC[Si](C)(C)C — higher, 86 °C
- C1CC[C@@H]2NCCC[C@@H]2C1 — higher, 206 °C

Point of comparison: `C=Cc1ccc(F)cc1`, melting point -34.5 °C. Against it:
- Ic1cccs1 — lower, -40 °C
- CC(C)(C(=O)O)n1nc2ccccc2n1 — higher, 152 °C
- CC(C)(C)c1ccc2cc3ccccc3cc2c1 — higher, 147 °C
- CCOC(=O)CCCCC(=O)OCC — higher, -19.8 °C
- CCO[Si](c1ccccc1)(c1ccccc1)c1ccccc1 — higher, 65 °C
- Sc1nc2ccccc2s1 — higher, 181 °C
- C=CCCCCCCCCCCC — higher, -13 °C
- CCCCC=O — lower, -91.5 °C
- Cc1c(O)c(Br)c(Br)c(Br)c1Br — higher, 208 °C
- CCCCN(CCCC)C(C(N)=O)c1ccc(OC)cc1 (centres undefined) — higher, 134 °C
- Cc1cc(N(CCO)CCO)ccc1N=Nc1ccc([N+](=O)[O-])cc1Cl — higher, 192 °C
- CN(C)C(O)=Nc1ccc(-n2nc(C(C)(C)C)oc2=O)c(Cl)c1 — higher, 193 °C
- FC(F)=C(F)F — lower, -142 °C
- CCCCCCCCCCN — higher, 17 °C
- COc1ccc2ncccc2c1 — higher, 26.5 °C
- CN(C=O)c1ccccc1 — higher, 14.5 °C
- Nc1nncs1 — higher, 191 °C
- CC(=O)OC(OC(C)=O)c1ccccc1 — higher, 46 °C
- CC(C)(O)CC(C)(O)c1ccc(Cl)cc1 (centres undefined) — higher, 76.5 °C
- COC(N)=O — higher, 54 °C
- Cc1cc(Cl)nn1C — higher, 47.5 °C
- CC(F)(F)Cl — lower, -131 °C
- O=Cc1cccc(O)c1O — higher, 108 °C
- O=C(O)c1nc(Cl)ccc1Cl — higher, 151 °C
- O=C1C[C@@H](c2ccc(O)cc2)Oc2cc(O)cc(O)c21 — higher, 251 °C
- CC(C)(C)C(=O)C1C(=O)c2ccccc2C1=O — higher, 109 °C
- CCOCCOC(=O)C=Cc1ccc(OC)cc1 — higher, -25 °C
- C=CC(Cl)(Cl)Cl — higher, -30 °C
- C=COC(=O)CCC — higher, 117 °C
- CC(C)(C)c1cc(C=O)cc(C(C)(C)C)c1O — higher, 186 °C
- O=C1C=C(N2CC2)C(=O)C(N2CC2)=C1N1CC1 — higher, 163 °C
- Nc1cc(Cl)ccc1Cl — higher, 50 °C
- CS(=O)(=O)CCCN=C=S — higher, 47.5 °C
- Nc1ccc(Nc2ccccc2)c2c1C(=O)c1ccccc1C2=O — higher, 192 °C
- CC(C)[C@H]1CC[C@H](C)C[C@@H]1OCC(=O)O — higher, 54 °C
- CN(C)CCN(C)C — lower, -55 °C
- CCCCCC#CCC(=O)O — higher, 17 °C
- C=CCc1cc(Cl)ccc1O — higher, 48 °C
- Oc1cccc2sccc12 — higher, 79.8 °C
- CCCCCCC=CCC(=O)O — higher, 18 °C
- C=CCC1(CC(C)C)C(=O)NC(=O)NC1=O — higher, 138 °C
- COc1ccc2c(=O)c3ccccc3oc2c1CN1CCCCC1 — higher, 160 °C
- O=C(OCC(=O)N1CCCCC1)c1ccccc1 — higher, 88 °C
- CC(=O)C1CCc2ccccc2C1=O (centres undefined) — higher, 56 °C
- Cc1cc(Cl)ccc1NC(=S)N(C)C — higher, 175 °C
- O=C1c2ccccc2N(C(=O)CN2CCOCC2)CN1c1ccccc1 — higher, 136 °C
- CC(C)OC(N)=O — higher, 93 °C
- O=[N+]([O-])c1c(Cl)ncnc1Cl — higher, 102 °C
- CC1CCCC1 — lower, -142 °C
- NS(=O)(=O)c1ccccc1 — higher, 151 °C
- c1ccc2c(c1)Cc1ccccc1C2 — higher, 111 °C
- COc1ccc(CCCC(=O)O)cc1 — higher, 57.5 °C
- CC(C)OC(=O)Nc1ccccc1 — higher, 87.3 °C
- O=C1CCCCO1 — higher, -12.5 °C
- COc1cc(Cl)c(Cl)c(Cl)c1Cl — higher, 84 °C
- Cc1cc(Sc2cc(C)c(O)c(C(C)(C)C)c2)cc(C(C)(C)C)c1O — higher, 126 °C
- CCCCNC(=O)n1cc(F)c(=O)[nH]c1=O — higher, 136 °C
- CN(C)Cc1cc(C(C)(C)C)c(O)c(C(C)(C)C)c1 — higher, 93.5 °C
- CCCC(N)C(=O)O (racemic) — higher, 305 °C
- CC(C)NCC(O)COc1cccc2[nH]ccc12 (centres undefined) — higher, 171 °C
- ICCI — higher, 83 °C
- FC(F)(F)C(Cl)Cl — lower, -107 °C
- O=C(O)C1=CC(=C(c2ccc(O)c(C(=O)O)c2)c2ccc(O)c(C(=O)O)c2)C=CC1=O — higher, 300 °C
- BrC(c1ccccc1)c1ccccc1 — higher, 45 °C
- O=C(Cl)c1cccc([N+](=O)[O-])c1 — higher, 36 °C
- CCNc1nc(Cl)nc(NC(C)(C)C#N)n1 — higher, 168 °C
- CC1=C(C(=O)Nc2ccccc2)SCCO1 — higher, 91.5 °C
- O=C(c1ccccc1)c1cccc(Br)c1 — higher, 81 °C
- c1ccsc1 — lower, -39.4 °C
- CCc1ccc(C)cc1C — lower, -62.9 °C
- Oc1ccc2c(c1)[C@@]13CCCC[C@@]1(O)[C@@H](C2)N(CC1CCC1)CC3 — higher, 216 °C
- COc1cccc(OC)c1O — higher, 56.5 °C
- Cc1ccc(P(c2ccc(C)cc2)c2ccc(C)cc2)cc1 — higher, 149 °C
- CC[C@@]12CCCN(CCc3c([nH]c4ccccc34)CC1)C2 — higher, 146 °C
- CC(=O)Nc1ccccc1F — higher, 78 °C
- CC(=O)c1ccc(Cl)s1 — higher, 52 °C
- N=C(N)N — higher, 50 °C
- CN(C)C(=S)N(C)C — higher, 79.3 °C
- COC1=C(OC)C(=O)C(C)=CC1=O — higher, 59.5 °C
- Cl.NCCc1ccccc1 — higher, 218 °C
- Brc1cc(Br)c(Br)c(Br)c1Br — higher, 160 °C
- C1CC[C@@H]2NCCC[C@@H]2C1 — lower, -40 °C

Point of comparison: `Clc1ccc(Cl)c(-c2cc(Cl)ccc2Cl)c1`, log10 Henry constant (atm·m³/mol) -3.7. Against it:
- Clc1cc(-c2c(Cl)cccc2Cl)c(Cl)c(Cl)c1Cl — lower, -4.41
- CCCCC=O — within 0.2 log units, -3.83
- CC(F)(F)Cl — higher, -1.23
- FC(F)(F)C(Cl)Cl — higher, -1.59
- c1ccsc1 — higher, -2.64
- COc1cccc(OC)c1O — lower, -6.64

For `Sc1nc2ccccc2s1`, the ready biodegradability was “readily biodegradable”.
For `CCCCCCCCCCN`, the ready biodegradability was “readily biodegradable”.
In the case of `O=C1Nc2ccccc2CCc2ccccc21`, the ready biodegradability is reported as “readily biodegradable”.
In the case of `C/C=C/C(=O)N(CC)c1ccccc1C`, the ready biodegradability is reported as “not readily biodegradable”.
In the case of `CCCCCCCCCc1cccc(O)c1CCCCCCCCC`, the ready biodegradability is reported as “not readily biodegradable”.
For `Nc1cc(Cl)ccc1Cl`, the ready biodegradability was “not readily biodegradable”.
With `NS(=O)(=O)c1ccccc1` the ready biodegradability was “not readily biodegradable”.
For `FC(F)(F)C(Cl)Cl`, the ready biodegradability was “not readily biodegradable”.
In the case of `CC1=C(C(=O)Nc2ccccc2)SCCO1`, the ready biodegradability is reported as “readily biodegradable”.
In the case of `c1ccsc1`, the ready biodegradability is reported as “not readily biodegradable”.
With `Clc1ccc(Cl)c(-c2cc(Cl)ccc2Cl)c1` the ready biodegradability was “not readily biodegradable”.

Point of comparison: `CCc1ccc(C)cc1C`, log10 biodegradation half-life (days) 0.602. Against it:
- CC1CCCC1 — the same, 0.602
- CCC(C)CCC(C)C (centres undefined) — within 0.2 log units, 0.778

Molecule `Clc1ccc(Cl)c(-c2cc(Cl)ccc2Cl)c1` has a log10 Koa of 8.47.

Same assay, conditions: fish

Point of comparison: `COc1cc(Cl)c(Cl)c(Cl)c1Cl`, log10 BCF 3.67. Against it:
- Sc1nc2ccccc2s1 — lower, 0.9
- Nc1cc(Cl)ccc1Cl — lower, 1.18
- NS(=O)(=O)c1ccccc1 — lower, 0.68
- c1ccsc1 — lower, 0.95
- Clc1ccc(Cl)c(-c2cc(Cl)ccc2Cl)c1 — higher, 4.26

Point of comparison: `C=CCCCCCCCCCCC`, log10 biotransformation half-life (days) 0.73. Against it:
- Nc1cc(Cl)ccc1Cl — lower, -1.13
- NS(=O)(=O)c1ccccc1 — lower, -0.71
- c1ccsc1 — lower, -0.82
